The test system of data set [1] is HCV. Particulars: monotherapy; cited from earlier work.
Data set [2] has as its system CYP isozymes. The data set can be described thus: cytochrome P450 phenotyping using chemical inhibitors. Format: in vitro ADME. From the text: (§1) Therefore, a cytochrome P450 monooxygenase inhibitor in an amount effective to inhibit metabolism of the protease inhibitor could increase the bioavailability of R7227 compared to administration in the absence of the CYP inhibitor.

The target in data set [3] is T1, NS3/4A protease (Hepatitis C virus genotype 1a, UniProt P27958).
T1 construct: a serine protease encoded in the NS3 region
The data set can be described thus: NS3/4A proteolysis inhibition. Particulars: read-out: 50% inhibitory concentration (IC50), NS3/4A proteolysis. The format is biochemical.

Data set [4] has as its system genotype 1 HCV replicon. The data set can be described thus: cell-based potency assay employing a genotype 1 HCV replicon. Particulars: Hepatitis C virus.
A short description of data set [5]: Pharmacokinetic enhancement of R7227 by ritonavir in healthy adults. The format is in vivo, human. Particulars: for concentration at 12 h / Cmax / AUC(0-inf): human, plasma; for concentration at 12 h: read-out: C12 h, GLSM; for Cmax / AUC(0-inf): N 12. As for the experimental part:
Subjects were screened for participation in this study within 21 days before dosing. The study enrolled 14 healthy volunteers (n=14 per group). The dosing schedule is illustrated below: [table] […] was formulated into clear size 10 oval soft gelatin capsules for oral administration at a strength of 100 mg per capsule (anhydrous free acid equivalent). The capsule fill solution consists of […]-001, polyethylene glycol PEG400 (Macrogol 400), and butylated hydroxytoluene (BHT). All excipients are compendial grade (NF or EP). Gelatin Type 195 (NF, EP) is used as the bulk gel mass for the capsule shell, with small amounts of sorbitol liquid 85/70/00 (NF, EP) and water (USP) used as plasticizers. All study medications were with a meal. […] was administered orally as a single dose of a 100 mg soft gel capsule on days 1, 3 and 12. […] Blood samples (5 mL) were collected to determine plasma concentrations of […] (and metabolites when assays were available) according to the following schedule Day 1, PK samples (5 mL) were be collected before […] dosing (predose) and at 0.5, 1, 1.5, 2, 2.5, 3, 3.5, 4, 6, 8, 12, and 24 hours after […] dosing; Days 3 and 12, PK samples (5 mL) were collected before […] dosing (predose) and at 0.5, 1, 1.5, 2, 2.5, 3, 3.5, 4, 6, 8, 12, 24, 36, and 48 hours after […] dosing. Primary PK parameters of […] that were determined are Cmax and AUC0→∞. Secondary PK parameters of […] that were measured include Tmax and AUC0→last, CL/F, t1/2, C12 hr and C24 h. Analysis of variance (ANOVA) was applied to the log-transformed primary pharmacokinetic parameters. Two-sided 90% confidence intervals for the ratios of the geometric means of the primary parameters (AUC0→∞ and Cmax of […]) were derived for the following comparisons: […] Analysis of variance (ANOVA) was used to analyze all primary study parameters using the following model: Yij=μ+τi+sj+εij where Yij denotes the PK parameter to be analyzed, μ denotes the general mean of the transformed variable, τi, the fixed effect of treatment; sj the random effect of subject; εij (error). The random deviations εij are assumed to be independent and normally distributed with zero mean and common variance σ^2. The group comparisons τ […]+Ritonavir-τ[…], the residual variance σ^2, and the 90% confidence limits for the group comparisons were estimated from the ANOVA model. For log-transformed variables (AUC0→∞ and Cmax), the ratio of true group means and the confidence limits for the corresponding ratio of means of the untransformed variables will be calculated by exponentiation of the least squares means differences and the confidence limits for the transformed values, respectively.

Data set [6] in a line: SAD study in healthy volunteers. The format is in vivo, human. From the text: (A. A. Mathias et al., Clin. Pharmacol. Ther. 2009 85(1)64-70).
The target of data set [7] is recombinant CYPs (Homo sapiens, UniProt P08684). The data set can be described thus: metabolism by recombinant CYPs. Format: in vitro ADME.
Excerpt: as §1

The mark [8] stands for this setting: po, 100 mg, Day 1 (alone), R7227 100 mg single oral dose.
Where [9] appears, read: multiple doses of ritonavir 100 mg every 12 hours.

We go through two compounds from patent publication US10918626B2, “Method for improving pharmacokinetics” (Roche Palo Alto LLC, priority 2009, dated 2021).

Read-outs that look alike come from different tables or passages of the source. A value given as a limit tells only on which side of the number the result lay.

recombinant CYPs, sequence (P08684 whole entry): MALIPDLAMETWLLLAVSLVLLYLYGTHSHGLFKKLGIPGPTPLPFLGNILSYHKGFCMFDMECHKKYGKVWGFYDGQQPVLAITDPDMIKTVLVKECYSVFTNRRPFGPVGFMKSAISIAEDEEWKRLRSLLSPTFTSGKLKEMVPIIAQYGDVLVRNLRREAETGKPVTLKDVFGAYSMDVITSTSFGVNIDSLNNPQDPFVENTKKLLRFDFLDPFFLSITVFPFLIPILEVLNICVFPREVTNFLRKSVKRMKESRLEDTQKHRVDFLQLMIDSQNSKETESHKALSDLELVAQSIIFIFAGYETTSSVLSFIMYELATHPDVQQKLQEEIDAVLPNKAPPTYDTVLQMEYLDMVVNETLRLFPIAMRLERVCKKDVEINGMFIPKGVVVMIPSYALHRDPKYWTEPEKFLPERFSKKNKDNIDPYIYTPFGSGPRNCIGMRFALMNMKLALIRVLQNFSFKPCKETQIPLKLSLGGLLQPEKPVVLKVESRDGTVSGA
T1 sequence (P27958 1658-1711): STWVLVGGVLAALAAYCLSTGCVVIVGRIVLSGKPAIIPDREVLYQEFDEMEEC
T1 sequence (P27958 1027-1657): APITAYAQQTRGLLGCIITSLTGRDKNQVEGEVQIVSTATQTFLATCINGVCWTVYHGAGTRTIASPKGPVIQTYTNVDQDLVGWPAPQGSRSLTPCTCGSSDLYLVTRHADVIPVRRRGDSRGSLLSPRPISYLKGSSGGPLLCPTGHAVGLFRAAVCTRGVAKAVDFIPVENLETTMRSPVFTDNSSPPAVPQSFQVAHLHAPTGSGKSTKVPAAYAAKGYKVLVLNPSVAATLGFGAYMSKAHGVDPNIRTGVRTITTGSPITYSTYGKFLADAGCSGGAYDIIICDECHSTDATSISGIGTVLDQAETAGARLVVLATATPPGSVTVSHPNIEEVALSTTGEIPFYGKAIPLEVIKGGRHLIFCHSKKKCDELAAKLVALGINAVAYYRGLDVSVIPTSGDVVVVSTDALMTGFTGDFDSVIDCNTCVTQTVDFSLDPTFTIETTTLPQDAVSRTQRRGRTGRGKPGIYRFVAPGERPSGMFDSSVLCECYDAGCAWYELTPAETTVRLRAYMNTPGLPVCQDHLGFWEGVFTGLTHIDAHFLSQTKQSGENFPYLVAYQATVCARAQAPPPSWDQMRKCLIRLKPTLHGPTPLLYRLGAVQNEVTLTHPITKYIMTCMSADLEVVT

Turning to `NC(=O)c1ncn([C@@H]2O[C@H](CO)[C@@H](O)[C@H]2O)n1` [ribavirin, 1-((2R,3R,4S,5R)-3,4-dihydroxy-5-hydroxymethyl-tetrahydro-furan-2-yl)-1H-[1,2,4]triazole-3-carboxylic acid amide], the “patients with serum amino transferase levels reduced to normal” value in data set [1] was 40%.

In the case of `CC(C)(C)OC(=O)N[C@H]1CCCCC/C=C\[C@@H]2C[C@@]2(C(=O)NS(=O)(=O)C2CC2)NC(=O)[C@@H]2C[C@@H](OC(=O)N3Cc4cccc(F)c4C3)CN2C1=O` [R7227], the “CYP isozymes participating in metabolism” value in data set [2] is “multiple CYP isozymes including 3A4, 2C19, 1A2, 2D6, and 2C9 participate in the metabolism”. The figures for the IC50 in data set [3] and in data set [4] were at most 0.225 nM and 1.77 nM, respectively. Further, the “AUC0→∞, ratio of GLSM (90% CI)” value in data set [5] (Day 3 vs Day 1) is on record as 5.70 (4.07, 7.99); in data set [5] (Day 12 vs Day 1) it was 5.50 (4.05, 7.48). The “Cmax, ratio of GLSM (90% CI)” value in data set [5] (Day 3 vs Day 1) is listed as 3.14 (1.87, 5.25); in data set [5] (Day 12 vs Day 1), 3.25 (2.12, 4.96). In addition, the “C12 h, ratio of GLSM (90% CI)” value in data set [5] (Day 3 vs Day 1, N 8, non-missing non-BLQ data) is 50.6 (25.6, 100); in data set [5] (Day 3 vs Day 1, N 12, includes extrapolated day 1 values), 65.2 (34.8, 122); in data set [5] (Day 12 vs Day 1, N 8, non-missing non-BLQ data), 26.9 (17.7, 41.0); in data set [5] (Day 12 vs Day 1, N 12, includes extrapolated day 1 values) it was 42.4 (25.7, 70.0). Besides, the concentration at 12 h is 0.02 ng/mL in data set [5] (oral, 100 mg, Day 1 (alone), N 8, non-missing non-BLQ data from all three treatment days); 0.01 ng/mL in data set [5] (oral, 100 mg, Day 1 (alone), N 12, includes extrapolated C12 h values from 4 subjects with BLQ values on day 1); 1 ng/mL in data set [5] (oral, Day 3 (with ritonavir single dose), N 8, non-missing non-BLQ data); 0.55 ng/mL in data set [5] (oral, Day 3 (with ritonavir single dose), N 12 (set including extrapolated day 1 values)); 0.53 ng/mL in data set [5] (oral, Day 12 (with ritonavir multiple dose), N 8, non-missing non-BLQ data); 0.36 ng/mL in data set [5] (oral, Day 12 (with ritonavir multiple dose), N 12 (set including extrapolated day 1 values)). Moreover, the Cmax in data set [5] (oral, Day 3 (with ritonavir single dose)) turned out to be 26.4 ng/mL; in data set [5] (oral, Day 12 (with ritonavir multiple dose)), 27.3 ng/mL; in data set [5] (setting [8]), 8.4 ng/mL. Besides, the AUC(0-inf) in data set [5] (setting [8]) amounted to 14.4 ng·h/mL; in data set [5] (po, 100 mg, Day 3 (with ritonavir single dose), R7227 100 mg oral), 82 ng·h/mL; in data set [5] (po, 100 mg, Day 12 (with ritonavir multiple dose), R7227 100 mg oral), 79.4 ng·h/mL. The “increase of R7227 AUC0→∞” value in data set [5] (setting [9]) is “approximately 5.5 fold”. Moreover, the “increase of R7227 Cmax” value in data set [5] (setting [9]) is listed as about 3.25 fold. The “highest safe and tolerable dose” value in data set [6] turned out to be 1600 mg. Also, in data set [7], the “metabolism by recombinant CYPs” value was “only CYP3A4 metabolized R7227 to an extent that could influence the pharmacokinetics”.
